Data: paper PMC4001856 (Brain research, 2013)

Molecular target: APP (amyloid precursor protein) (Homo sapiens, UniProt P05067)
Test: SPR
Format: binding

Sequence of APP (amyloid precursor protein) (P05067 230-624 isoform P05067-4): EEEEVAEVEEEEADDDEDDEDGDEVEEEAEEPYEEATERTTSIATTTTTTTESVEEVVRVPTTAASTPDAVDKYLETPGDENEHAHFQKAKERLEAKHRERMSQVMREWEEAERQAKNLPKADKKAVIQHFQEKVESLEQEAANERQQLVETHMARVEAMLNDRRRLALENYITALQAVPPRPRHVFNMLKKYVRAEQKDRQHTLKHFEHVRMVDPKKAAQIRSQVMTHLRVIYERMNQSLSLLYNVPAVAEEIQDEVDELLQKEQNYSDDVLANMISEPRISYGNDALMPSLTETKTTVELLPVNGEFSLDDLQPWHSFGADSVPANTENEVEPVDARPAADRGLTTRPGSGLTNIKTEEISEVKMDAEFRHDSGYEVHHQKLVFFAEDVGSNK

Molecule `CN1[C@@H]2CC[C@H]1C[C@@H](OC(=O)c1c[nH]c3ccccc13)C2` [tropisetron] has a Kd of 900 nM.
